Measurements published in article PMC7021728, “Structure of the agonist 12–HHT in its BLT2 receptor-bound state” (Scientific Reports, 2020).
Residue numbers refer to the chain shown, from its start. Where two headings read alike, the source gives them in different places.

Tests used:
purified BLT2 receptor = target: purified BLT2 receptor; design: method as in PMID 21688157; conditions: cited from earlier work
BLT2 = system: BLT2; design: method as in PMID 18378794; conditions: membrane fractions of CHO transfected by BLT2; cited from earlier work
BLT2 P175^ECL2A = target: T1, BLT2 P175^ECL2A (Homo sapiens, UniProt Q9NPC1, P175A); assay: Gi protein activation catalyzed by BLT2 mutant; type: biochemical
T1 construct: made in house
T1 sequence (Q9NPC1 1-358 P175A): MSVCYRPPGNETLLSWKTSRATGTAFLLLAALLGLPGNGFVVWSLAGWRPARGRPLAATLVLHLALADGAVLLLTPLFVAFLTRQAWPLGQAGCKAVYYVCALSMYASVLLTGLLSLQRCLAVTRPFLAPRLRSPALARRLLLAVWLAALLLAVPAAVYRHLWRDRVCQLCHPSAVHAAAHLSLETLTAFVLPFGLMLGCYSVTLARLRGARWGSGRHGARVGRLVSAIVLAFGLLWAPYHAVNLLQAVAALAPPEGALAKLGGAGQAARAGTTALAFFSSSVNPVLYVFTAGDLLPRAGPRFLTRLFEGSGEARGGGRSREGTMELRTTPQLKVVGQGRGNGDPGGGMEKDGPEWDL
Description: (§1) All mutations were introduced in the wild-type BLT2 receptor by PCR-mediated mutagenesis using the QuickChange multisite-directed mutagenesis kit (Stratagene) and the wild-type BLT2 construct as a template. Mutations were confirmed by nucleotide sequencing. […] Gαi2 and Gβ1γ2 were prepared as previously described. […] The data were normalized to the fluorescence maximum obtained in the presence of saturating concentrations in 12–HHT (10 μM).

BLT2 T274^7.39A = target: T2, BLT2 T274^7.39A (Homo sapiens, UniProt Q9NPC1, T274A); assay: Gi protein activation catalyzed by BLT2 mutant; type: biochemical
T2 construct: made in house
T2 sequence (Q9NPC1 1-358 T274A): T1 sequence (Q9NPC1 1-358 P175A) with A175P, T274A
Description: as §1

BLT2 S174^ECL2A = target: T3, BLT2 S174^ECL2A (Homo sapiens, UniProt Q9NPC1, S174A); assay: Gi protein activation catalyzed by BLT2 mutant; type: biochemical
T3 construct: made in house
T3 sequence (Q9NPC1 1-358 S174A): T1 sequence (Q9NPC1 1-358 P175A) with S174A, A175P
Description: (§2) All mutations were introduced in the wild-type BLT2 receptor by PCR-mediated mutagenesis using the QuickChange multisite-directed mutagenesis kit (Stratagene) and the wild-type BLT2 construct as a template. Mutations were confirmed by nucleotide sequencing.
(§3) Gαi2 and Gβ1γ2 were prepared as previously described. Briefly, agonist-dependent functional coupling of the purified receptor to Gαi2β1γ2 was assessed through the rate of GTPγS binding at increasing agonist concentrations determined by monitoring the relative increase in the intrinsic fluorescence ( λexcitation=300nm , λemission=345nm ) of Gαi2 (200 nM of purified G protein) in the presence of BLT2 (20 nM) in buffer containing 10 mM MOPS, pH 7.2, 130 mM NaCl, and 2 mM MgCl2 at 15 °C after the addition of 10 μM GTPγS. The data were normalized to the fluorescence maximum obtained in the presence of saturating concentrations in 12–HHT (10 μM).

BLT2 R270^7.35A = target: T4, BLT2 R270^7.35A (Homo sapiens, UniProt Q9NPC1, R270A); assay: Gi protein activation catalyzed by BLT2 mutant; type: biochemical; conditions: construct R270^7.35A
T4 construct: made in house
T4 sequence (Q9NPC1 1-358 R270A): T1 sequence (Q9NPC1 1-358 P175A) with A175P, R270A
Description: as §2, §3

wild-type BLT2 receptor = target: T5, wild-type BLT2 receptor (Homo sapiens, UniProt Q9NPC1); assay: Gi protein activation catalyzed by purified BLT2 (rate of GTPγS binding, Gαi2 intrinsic fluorescence); type: biochemical
T5 construct: made in house
T5 sequence (Q9NPC1 1-358): T1 sequence (Q9NPC1 1-358 P175A) with A175P
Description: as §3

BLT1 = system: BLT1; design: method as in PMID 18378794; conditions: in words; cited from earlier work

EC50 (BLT2 P175^ECL2A; construct P175^ECL2A): 38.9 nM
effect of the mutation on ligand binding (BLT2 T274^7.39A; T274^7.39A compared to wild-type, in words): do not impact receptor ligand properties
EC50 (BLT2 T274^7.39A; construct T274^7.39A): 27.7 nM
EC50 (BLT2 S174^ECL2A; S174^ECL2A, read-out: EC50): 295 nM
EC50 (BLT2 S174^ECL2A; construct S174^ECL2A, given as LogEC50 (negative sign), read-out: LogEC50 (converted)): 289 nM
EC50 (BLT2 S174^ECL2A; construct S174^ECL2A, read-out: EC50): 295 nM
EC50 (BLT2 R270^7.35A): 235 nM
EC50 (wild-type BLT2 receptor; construct wt, Gi protein activation): 21 nM
EC50 (wild-type BLT2 receptor; wild-type): 21 nM
Compound: CCCCC[C@H](O)/C=C/C=C/C/C=C\CCCC(=O)O [12–HHT, 12S–hydroxyheptadeca-5Z,8E,10E-trienoic acid]
Kd (purified BLT2 receptor; purified BLT2 associated with amphipols in solution, in vitro): ~60 nM
bound time compared with LTB4 (in vitro off-rate constant measurements) (purified BLT2 receptor; ratio 12–HHT / LTB4): 3.6 times
half maximal effective concentration (EC50) compared to LTB4 (BLT2): about one order of magnitude lower than LTB4
effect of the mutation on ligand binding (BLT2 P175^ECL2A; P175^ECL2 to alanine compared to wild-type, in words): do not display a significant impact on ligand binding
binding to BLT1 (BLT1): does not bind
